Like-named read-outs stand apart in the source and are kept apart here. Values belong to the compound of their own block, whether it stands above or below them.
What was measured:
[1] = target: T1, truncated form of recombinant rabbit GSK-3β enzyme (Oryctolagus cuniculus, UniProt G1T8E2); assay: Inhibition of Glycogen Synthase Kinase-3β in vitro assay; format: biochemical
T1 construct: The construct was cloned in pGEX-3X vector; fused on or other part: GST at the N-terminus (pGEX-3X vector, purified on glutathione sepharose 4B)
T1 sequence (G1T8E2 1-432): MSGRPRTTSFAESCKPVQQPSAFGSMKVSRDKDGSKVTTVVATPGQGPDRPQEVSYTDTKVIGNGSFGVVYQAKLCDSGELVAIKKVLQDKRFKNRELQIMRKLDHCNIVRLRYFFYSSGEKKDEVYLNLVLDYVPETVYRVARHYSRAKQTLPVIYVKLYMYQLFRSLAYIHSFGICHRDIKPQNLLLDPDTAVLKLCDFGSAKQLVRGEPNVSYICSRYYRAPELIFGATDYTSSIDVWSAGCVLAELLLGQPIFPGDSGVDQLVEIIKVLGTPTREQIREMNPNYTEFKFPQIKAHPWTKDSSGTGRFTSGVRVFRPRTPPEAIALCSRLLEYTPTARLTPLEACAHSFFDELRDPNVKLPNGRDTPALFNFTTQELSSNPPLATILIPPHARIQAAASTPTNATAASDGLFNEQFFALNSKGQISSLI
Method: The in vitro GSK-3β inhibitory activity of compounds of this invention was determined with a truncated form of recombinant rabbit GSK-3β enzyme.
The construct was cloned in pGEX-3X vector according to the procedure described in Wang, Q. M. et al., J. Biol. Chem. 269, 14566-14574 (1994). Ten amino acids at the N-terminus were deleted to obtain constitutively active GSK-3β ((see Murai H. et al., FEBS Lett. 392,153-60, (1996)). GSK-3β was expressed in BL21 DE3 cells. The cells were grown at 37° C. until they reached mid log phase and then induced with isopropyl-beta-(D)-thiogalactopyranoside (final concentration 0.4 mM) at 30° C. for 2 h. The cells were homogenized and the cell extract was loaded on a glutathione sepharose 4B column. GSK-3β was eluted with glutathione buffer (50 mM Tris pH 8 and 10 mM reduced glutathione). The eluate was collected in 3 minute fractions and assayed for GSK-3β content on a 10% SDS PAGE (polyacrylamide gel electrophoresis). Fractions above 20% peak height were pooled, aliquoted, and stored at −80° C. until used.
ATP (1 μCi), and 2 μl of compounds of this invention in DMSO (various concentrations). 15 μl of GSK-3β (various concentrations) was added and the reaction mixture was incubated at 30° C. for 1 h. The reaction was stopped by transferring 25 μl of the reaction mixture to a phosphocellulose plate containing 130 μl of 1.85% phosphoric acid. The free radionucleotides in the membrane were washed off under vacuum with 1.85% phosphoric acid (5 times). After the last wash, the plate was transferred to an adoptor plate and 50 μl of scintillation cocktail (Microscint-20, Packard, cat. #20-133) was added to each well and the amount of radioactivity was counted in a top counter.

[2] = system: Ovalbumin-sensitized Brown-Norway rats; assay: Study GSK8 - bone formation in rats treated with Compound II-3; format: in vivo, rat; details: twice daily oral gavage Days 6-8 and 13-23, liposome formulation
Method: Ovalbumin-sensitized Brown-Norway rats were used. They were sensitized i.p. with 100 μg of OA (ovalbumin) in 0.2 ml alum once every week for three weeks (Day 0, 7 and 14). Seven days after the final sensitization (Day 21), rats were challenged with 1% OA for 45 minutes and euthanized 72 hrs later (day 24). Compound II-3 was given twice daily by oral gavage on Days 6-8 and Days 13-23. Compound was prepared as a liposome formulation—8 mg/ml liposome solution in a liposome composition of 1.44 grams of compound and 54 grams of L-alpha-phosphatidylcholine in 160 ml of sterile water for injection.
Femur samples were decalcified in 10% formic acid, embedded in paraffin, sectioned at five micron thickness and stained with hematoxylin and eosin.

Male Wistar rats = assay: Study MT021 - bone formation in rats with Compound II-9; format: in vivo, rat
Method: Compound was formulated as a solution in 10% w/v Solutol. Male Wistar rats were dosed by oral gavage, once per day for 14 days at 25, 75 or 150 mg/kg/day and compared to vehicle control (10% Solutol, 10 ml/kg/day). Complete necroscopies were done and the tissues preserved in 10% formalin. Femur, sternum and vertabra were processed and analyzed as described in Example 3.

osteopenic rat model = assay: Bone anabolism in the rat (osteopenic rat model; bone mineral density, serum and urine calcium); format: in vivo
Method: . Three month old rats are ovariectomized (Ovx) and administered either bovine parathyroid hormone (Amino Acids^1-34) (bPTH in Table) or one of the compounds of the present invention once a day by mouth starting at least 4 weeks post-ovariectomy and continuing until final sacrifice after 3 weeks of daily treatment. Control groups, both sham (rats that were not ovariectomized) and Ovx, received vehicle only. Bovine parathyroid hormone, bPTH, was tested at 40 ug/kg (optimal dose) as an internal positive control for anabolic activity. […] Blood and urine samples were collected at 2-3 weeks after initiation of treatment and the amount of calcium in the serum and urine was determined.
The bone mineral density of the right femur was determined using the High Resolution Software on a QDR-4500W Bone Densitometer™ (Hologic, Waltham, Mass.). The animals were scanned by placing them on a plexiglass block in a supine position such that the right leg was perpendicular to the main body and the tibia was perpendicular to the femur. The increase in the bone mineral density and the amount of calcium in the urine and the serum for the compounds are given in the table below.

[3] = Ovx rats, 30 mg/kg/day by mouth
[4] = Sham (intact) rats, 30 mg/kg/day by mouth
[5] = Ovx rats, 0.04 mg/kg/day, Compound X study
[6] = Ovx rats, 0.04 mg/kg/day, III-2 Ovx study
[7] = Sham (intact) rats, 0.04 mg/kg/day

Compound: Cn1cc(C2=C(c3ccccc3OCC(O)CO)C(=O)NC2=O)c2ccccc21 (stereo not shown) [Compound I-1]
melting point: 245 to 247.1 °C

Compound: Cn1cc(C2=C(c3cccc(OCCN4CCOCC4)c3)C(=O)NC2=O)c2ccccc21 [II-4]
melting point: 197.7 to 199 °C

Compound: Cl.Cn1cc(C2=C(c3cccc(NCC(O)CO)c3)C(=O)NC2=O)c2cc(F)ccc21 (stereo not shown) [III-2]
LUMBAR SPINE % 3 wk BMD Change (osteopenic rat model; [3]): 7.9 ± 1.8%
WHOLE FEMUR % 3 wk BMD Change (osteopenic rat model; [3]): 11.6 ± 0.9%
LUMBAR SPINE % 3 wk BMD Change (osteopenic rat model; [4]): 9.5 ± 1.8%
WHOLE FEMUR % 3 wk BMD Change (osteopenic rat model; [4]): 13.1 ± 1.3%

Compound: bPTH: bovine parathyroid hormone (Amino Acids 1-34), internal positive control for anabolic activity
LUMBAR SPINE % 3 wk BMD Change (osteopenic rat model; [5]): 8.6 ± 1.8%
WHOLE FEMUR % 3 wk BMD Change (osteopenic rat model; [5]): 7.0 ± 1.1%
LUMBAR SPINE % 3 wk BMD Change (osteopenic rat model; [6]): 12.2 ± 1.5%
WHOLE FEMUR % 3 wk BMD Change (osteopenic rat model; [6]): 16.6 ± 0.9%
LUMBAR SPINE % 3 wk BMD Change (osteopenic rat model; [7]): 15.7 ± 0.8%
WHOLE FEMUR % 3 wk BMD Change (osteopenic rat model; [7]): 11.7 ± 1.0%

Further lines, with some results ahead:

melting point: 58 to 65 °C
Compound: Cn1cc(C2=C(c3cccc(NCCCO[Si](C)(C)C(C)(C)C)c3)C(=O)NC2=O)c2ccccc21

IC50 ([1]; GSK-3β assay of Biological Example 1): 1.7 nM
Compound: Nc1nc(NCCNc2ncc(-c3ncc[nH]3)c(-c3ccc(Cl)cc3Cl)n2)ccc1[N+](=O)[O-] [Compound X, N^6-{2-[4-(2,4-dichloro-phenyl)-5-(1H-imidazol-2-yl)-pyrimidin-2-ylamino]-ethyl}-3-nitro-pyridine-2,6-diamine, reference compound]

IC50 [1]: 3.2 nM
melting point: 177.7 to 178 °C
Compound: Cn1cc(C2=C(c3cccc(OC[C@H](O)CO)c3)C(=O)NC2=O)c2ccccc21 [II-3]
cancellous bone under the growth plate of the femur (light microscopy) [2]: moderate increases in cancellous bone

IC50 [1]: 1.5 nM
melting point: 160 to 163.5 °C
Compound: Cl.Cn1cc(C2=C(c3cccc(NCC(O)CO)c3)C(=O)NC2=O)c2ccccc21 (stereo not shown) [II-9]
animals with increased cancellous bone (Male Wistar rats; 25 mg/kg group, oral, 14 days): only one animal
rats with increased new bone formation (Male Wistar rats; 150 mg/kg group, oral, 14 days): Five out of six
cancellous bone (femur, sternum, vertebra) (Male Wistar rats; oral gavage once per day for 14 days at 25, 75 or 150 mg/kg/day): Increased cancellous bone was observed in all groups
